Common to all, as to type: in vivo, Balb/c mice
The subject of one test is anti-β-lactoglobulin IgE. Put plainly: Oral tolerance mouse model: anti-β-lactoglobulin IgE ELISA titer. Particulars: synthetic peptide given orally; for IgE titer (log) (test/control): test value of the test/control pair (control 3.39), mice then immunized with β-lactoglobulin. How it is done:
(§1) For assessing the tolerogenic properties of the various peptides female Balb/c mice were used, obtained from IFFA-Crédo (L'Abresle France). The animals were all bred and raised on a milk free diet. At the beginning of the experiments the animals were 3 weeks old. They received by gavage native β-lactoglobulin (5 mg/g of body weight), various amounts of digested β-lactoglobulin and various amounts of the different peptides obtained under a) above. Control mice were fed saline water. After 5 days on such a diet all mice were immunized with β-lactoglobulin and ovalbumin (grade V, Sigma) as a non related antigen in order to assess the specificity of the immune response. A delayed type hypersensitivity evaluation (DTH) was performed 21 days after the systemic challenge by comparing the thickness of the left rear footpad, prior to and after the immunization. 24 hours after the immunization the foot pad thickness of the animals were measured (expressed in Δ thickness (mm)). Subsequently, blood was taken from all mice, followed by talking the spleens, that were pooled according to group treatment. Splenocyte specific proliferation assays were performed for each group. The intestinal contents were individually collected. Serum and intestinal samples were individually frozen at −80° C. until performance of the respective assays. Anti-β-lactoglobulin IgE and anti-ovalbumin IgE levels were determined both in serum and intestinal samples.
The serum and intestinal fluids were diluted and assayed in duplicate for anti-β-lactoglobulin and anti-ovalbumin IgE antibodies using ELISA. Pooled samples of 20 non immunized mice were used as negative controls. The titers were determined by calculating the dilution of the sample, that gave twice the absorbance of the negative control. The titers were expressed as the log10 of the reciprocal of he dilution
(§2) The synthetic peptides were analysed for their tolerogenic capacity in the […] mouse model.
On the technique in general: An ELISA detects its analyte on a solid surface through an enzyme-linked reagent.

For a further test, the system named is Spleen lymphocyte. Put plainly: Splenocyte specific proliferation assay ([3H]-Thy, stimulation index). Particulars: synthetic peptide given orally; for Spleen lymphocyte SI (test/control): SI: Stimulation Index; for T cell proliferation / T cell response: result in words. How it is done:
as §1
Spleen cell solutions were homogenized in PBS and purified. The cells were co-cultured in the presence of β-lactoglobulin or phytohemagglutinin A. Tritiated thymidine ([^3H]-Thy (Amersham, Zürich) was added during the last 6 hours of culture and the plates were harvested and analyzed by scintillation counting. Stimulation indices were calculated as the ratio of blank-substracted test and control levels expressed as the mean cpm of [^3H]-Thy incorporated by triplicate cultures.
as §2

In a further test the test system is MLN lymphocytes. Put plainly: Mesenteric lymph node lymphocyte proliferation (stimulation index). The settings on record: synthetic peptide given orally.

Regarding “T-6/T-17: synthetic β-lactoglobulin peptide (residues 84-100), SEQ ID 24: CFKIDALNENKVLVLDTDYKKYS (CFKIDALNENKVLVLDTDYKKYS)”, the “IgE titer (log) (test/control)” value in the test with anti-β-lactoglobulin IgE is given as 3.40/3.39 log. In addition, in the test with Spleen lymphocyte, the “Spleen lymphocyte SI (test/control)” value is reported as 0.92. Moreover, the “MLN lymphocytes SI (test/control)” value with MLN lymphocytes amounted to 0.81.

On to “T-6: synthetic β-lactoglobulin peptide (residues 84-91 with flanking residues and extra Cys), SEQ ID 22: C F K I D A L N E N K V S R (CFKIDALNENKVSR)”, for which the “IgE titer (log) (test/control)” value in the test on anti-β-lactoglobulin IgE is given as 3.24/3.39 log. In the test on Spleen lymphocyte, the “Spleen lymphocyte SI (test/control)” value is 0.53 and the “T cell proliferation / T cell response” value is “suppressed”. In the test with MLN lymphocytes, this substance displayed an MLN lymphocytes SI (test/control) of 0.29.

For the substance “T-13: control peptide, N-terminus of β-lactoglobulin (residues 1-8), SEQ ID 25: L I V T Q T M K S R C (LIVTQTMKSRC) [reference compound]”, the “oral tolerance to BLG” value in the test on anti-β-lactoglobulin IgE (result in words) is given as “did not induce”. For the same substance, the “IgE titer (log) (test/control)” value in the test with anti-β-lactoglobulin IgE is on record as 3.20/3.39 log. The “Spleen lymphocyte SI (test/control)” value in the test on Spleen lymphocyte is listed as 1.70. The “MLN lymphocytes SI (test/control)” value in the test on MLN lymphocytes worked out at 0.87.

“T-17: synthetic β-lactoglobulin peptide (residues 92-100 with flanking residues and extra Cys), SEQ ID 23: C N K V L V L D T D Y K K Y S (CNKVLVLDTDYKKYS)”: the IgE production entry in the test with anti-β-lactoglobulin IgE (result in words) was “reduced”. For the same substance, the “IgE titer (log) (test/control)” value in the test with anti-β-lactoglobulin IgE is reported as 2.67/3.39 log. Moreover, in the test on Spleen lymphocyte, the “Spleen lymphocyte SI (test/control)” value is listed as 0.31 and the “T cell proliferation / T cell response” value is “reduced”. Further, the “MLN lymphocytes SI (test/control)” value with MLN lymphocytes is listed as 0.41.

Source of the values: patent publication US7498162B2, “Lactic acid bacteria capable of reducing an individual's tendency to develop allergic reactions” (Nestec S.A., priority 2000, dated 2009).
